Source: US20180251847A1, “METHOD OF PREDICTING THE TUMOR RESPONSE TO DNA METHYLATION INHIBITORS AND ALTERNATIVE THERAPEUTIC REGIMEN FOR OVERCOMING RESISTANCE” (PALACKY UNIVERSITY, OLOMOUC, priority 2014, published 2018)
Like-named read-outs stand apart in the source and are kept apart here.

How the values were obtained:
HCT116 = assay: MTT based cell survival assay, parental HCT116; parameters: species or system human; conditions: Homo sapiens
Protocol: (§1) To study the mechanism of resistance towards DNA methylation inhibitor, 2′-deoxy-5-azacytidine, we used the human colorectal cancer cell line (HCT116), human promyelocytic leukemia cells (HL-60), and human breast adenocarcinoma cell line (MCF-7) obtained from American Type Culture Collection (Manassas, Va.). The cell lines were cultured in complete growth media (Sigma-Aldrich, St. Louis, Mo.), supplemented with fetal bovine serum (FBS, PAN-Biotech GmbH, Aidenbach, Germany), 100 U/mL penicillin (Biotika, Slovenská L'upča, Slovak Republic) and 50 μg/mL streptomycin (Sigma-Aldrich), and the cultures were maintained at 37° C. and 5% CO2, in a humidified incubator. The cell line, HCT116 was grown in McCoy's 5 A medium supplemented with 10% FBS and 3 mM L-glutamine (Sigma-Aldrich), HL-60 was grown in Iscove's Modified Dulbecco's Medium with 20% FBS, and MCF-7 was grown in RPMI-1640 medium with 10% FBS.
The method is primarily based on reduction of yellow colored tetrazolium salt, 3-(4,5-dimethylthiazol-2-yl)-2,5-diphenyltetrazolium bromide (MTT) to insoluble purple colored formazan crystals by NAD(P)H-dependent oxidoreductase enzymes in mitochondria of the viable cell. The intensity of the purple color produced on solubilization of the formazan crystals is directly proportional to the number of viable cells (Meerloo J. V. et al., Methods in Molecular Biology 2011; 731, 237-45).
To determine the IC50 of the epigenetic drugs (Tocris Bioscience, Bristol, United Kingdom), four independent experiments were performed using triplicate wells of 96 well plates. Cells in 80 μL of medium were plated in each of the experimental and the control wells, followed by addition of 20 μL medium with five-fold drug concentration to experimental wells. The wells with medium alone were included alongside as blank for absorbance readings. […], 10 μL MTT (Sigma-Aldrich) prepared in 1×PBS (5 mg/mL) was added to all wells including blank and control, and incubated until the purple formazan crystals were visible after which 100 μL of detergent (10% SDS, pH: 5.5) was added and the plates were incubated overnight to solubilize the formazan and the cellular material.
(§2) Cross resistance was determined as the fold increase, whereas, the sensitivity was determined as the fold decrease in the IC50 of the drugs for the resistant cell lines compared to their genetically identical drug sensitive counterpart.

R1.1 (HCT116-RDAC) = assay: MTT based cell survival assay, DAC resistant HCT116 clone R1.1; parameters: species or system human
Protocol: (§3) The DAC resistant HCT116 cell lines were developed using two methods.
(§4) The method is primarily based on reduction of yellow colored tetrazolium salt, 3-(4,5-dimethylthiazol-2-yl)-2,5-diphenyltetrazolium bromide (MTT) to insoluble purple colored formazan crystals by NAD(P)H-dependent oxidoreductase enzymes in mitochondria of the viable cell.
(§5) Cells in 80 μL of medium were plated in each of the experimental and the control wells, followed by addition of 20 μL medium with five-fold drug concentration to experimental wells. The wells with medium alone were included alongside as blank for absorbance readings. After 72 h of drug treatment, 10 μL MTT (Sigma-Aldrich) prepared in 1×PBS (5 mg/mL) was added to all wells including blank and control, and incubated until the purple formazan crystals were visible after which 100 μL of detergent (10% SDS, pH: 5.5) was added and the plates were incubated overnight to solubilize the formazan and the cellular material.
as §2

R1.2 (HCT116-RDAC) = assay: MTT based cell survival assay, DAC resistant HCT116 clone R1.2; parameters: species or system human
Protocol: as §3, §4, §5, §2

R1.3 (HCT116-RDAC) = assay: MTT based cell survival assay, DAC resistant HCT116 clone R1.3; parameters: species or system human
Protocol: as §3, §4, §5, §2

R1.4 (HCT116-RDAC) = assay: MTT based cell survival assay, DAC resistant HCT116 clone R1.4; parameters: species or system human
Protocol: as §3, §4, §5, §2

R2.1 (HCT116-RDAC) = assay: MTT based cell survival assay, DAC resistant HCT116 clone R2.1; parameters: species or system human
Protocol: as §3, §4, §5, §2

MCF-7 = assay: MTT based cell survival assay, parental MCF-7; conditions: Homo sapiens, MCF7, read-out: Mean IC50
Protocol: as §1, with “The cell line, HCT116 was grown in McCoy's 5 A medium supplemented with 10% FBS and 3 mM L-glutamine (Sigma-Aldrich), HL-60 was grown in Iscove's Modified Dulbecco's Medium with 20% FBS, and MCF-7 was grown in RPMI-1640 medium with 10% FBS.” left out
(§6) To determine the IC50 of the epigenetic drugs (Tocris Bioscience, Bristol, United Kingdom), four independent experiments were performed using triplicate wells of 96 well plates. […] The wells with medium alone were included alongside as blank for absorbance readings. […]
as §2

HL-60 = assay: MTT based cell survival assay, parental HL-60; conditions: Homo sapiens, HL-60, read-out: Mean IC50
Protocol: as §1, with “The cell line, HCT116 was grown in McCoy's 5 A medium supplemented with 10% FBS and 3 mM L-glutamine (Sigma-Aldrich), HL-60 was grown in Iscove's Modified Dulbecco's Medium with 20% FBS, and MCF-7 was grown in RPMI-1640 medium with 10% FBS.” left out
as §6, §2

HL-60_RDAC = assay: MTT based cell survival assay, DAC resistant HL-60; parameters: species or system human
Protocol: For cross validation of data obtained from comparative studies of HCT116 parental and resistant cells, we further developed DAC resistant MCF-7 and HL-60 cell lines. […] However, DAC resistant HL-60 cells were obtained as a gift from the author (Qin T. et al., Blood 2009; 113, 659-67) and was further selected in our laboratory by treatment with 5 μM DAC.
MTT based cell survival assay was performed in either case, whether to determine the cross-resistance of the DAC resistant cell lines towards inhibitors of DNA methyltransferases, histone acetyltransferases, histone methyltransferases, histone deacetylases, and histone demethylases, or to determine their sensitivity towards selective BET bromodomain inhibitors. […]
as §6, §2

[1] = Homo sapiens, HCT-116, 72 h, read-out: Mean IC50

SMILES: Nc1ncn([C@H]2C[C@H](O)[C@@H](CO)O2)c(=O)n1 [DAC, 2′-deoxy-5-azacytidine]
- IC50 (HCT116; HCT-116, 72 h, read-out: Mean IC50): 280 nM
- IC50 (HCT116; HCT-116, 120 h, read-out: IC50 concentration of the drug): 280 nM
- IC50 (R1.1 (HCT116-RDAC); [1]): > 100000 nM
- fold change (resistance index) (R1.1 (HCT116-RDAC); IC50 R1.1 / IC50 HCT116): (>357) fold
- IC50 (R1.2 (HCT116-RDAC); [1]): > 100000 nM
- fold change (resistance index) (R1.2 (HCT116-RDAC); IC50 R1.2 / IC50 HCT116): (>357) fold
- IC50 (R1.3 (HCT116-RDAC); [1]): > 100000 nM
- fold change (resistance index) (R1.3 (HCT116-RDAC); IC50 R1.3 / IC50 HCT116): (>357) fold
- IC50 (R1.4 (HCT116-RDAC); [1]): > 100000 nM
- fold change (resistance index) (R1.4 (HCT116-RDAC); IC50 R1.4 / IC50 HCT116): (>357) fold
- IC50 (R2.1 (HCT116-RDAC); Homo sapiens, HCT-116, R2.1, MTT, 72 h drug treatment): > 100000 nM
- fold change (resistance index) (R2.1 (HCT116-RDAC); IC50 R2.1 / IC50 HCT116): (>357) fold
- IC50 (MCF-7): 238 nM
- IC50 (HL-60): 78 nM
- IC50 (HL-60_RDAC; Homo sapiens, HL-60, read-out: Mean IC50): > 100000 nM
- fold change (resistance) (HL-60_RDAC; IC50 HL-60_RDAC / IC50 HL-60): > 1289 fold
